Values belong to the compound of their own block, whether it stands above or below them.
How the values were obtained:
PU.1 [1] = target: T1, PU.1 (Mus musculus, UniProt P17433); test: q-PCR of TIM-3 expression in Blast-PU.1 cells (PU.1 inhibition potency); type: cell-based; details: 10 μM, Blast-PU.1 cells, 24 h treatment, q-PCR
T1 construct: EGFP (from 'PU.1-EGFP-vector'); expressed in transfected cells
Excerpt: An acute T cell lymphoblastic leukemia (T-ALL) disease model was used to evaluate the effect of the newly synthesized compounds on PU.1 inhibition. Pten, a famous tumor suppressor gene, was […] deleted in mouse hematopoietic stem cells and their differentiated progeny, and this would eventually lead to a progressive T-ALL in about two months from born. It is believed that immune checkpoint T cell immunoglobulin mucin-3 (TIM-3), a surface marker for the isolation of pure leukemia-initiating cells (LICs), is transcriptionally regulated by transcription factor PU.1 in the Pten-null T-ALL model. Therefore, the expression level of TIM-3 was detected and quantified to characterize the inhibition potency of the compounds after 24 h treatment of graded concentrations of compounds. Blast cells were transfected with either PU.1-EGFP-vector or EGFP-vector to yield stable cell lines blast-PU.1 and blast-EGFP, respectively. These cell lines were used for compound testing in vitro. Compounds DB1976 and DB2115 were tested as well for comparison. Blast-PU.1 and blast-EGFP are the ideal cell lines for compounds testing in vitro, since they are T-ALL blast cells with […] TIM-3 and PU.1 expression level.

[2] = tested on: bleomycin-induced skin fibrosis; test: bleomycin-induced skin fibrosis, preventive and therapeutic models; type: in vivo, mouse
Method: Methods: To evaluate the preventive and therapeutic effects of compound I-1 on skin fibrosis, bleomycin was used to establish two animal models of skin fibrosis with different drug intervention (6-8 weeks, C57BL/6, male). Skin fibrosis was induced by local injection of bleomycin (0.5 mg/mL, 0.1 ml/mouse) in a skin defined area (˜1 cm^2), where the hair was removed in advance, at the upper back every other day. Subcutaneous saline injections served as controls. (I) Preventive model of bleomycin-induced skin fibrosis: Compound I-1, positive control DB1976, or vehicle (saline) were injected i.p. simultaneously with bleomycin for 4 weeks (FIG. 3a). (II) Therapeutic model of bleomycin-induced skin fibrosis: Mice were pre-charged with bleomycin for 3 weeks to induce skin fibrosis, then treated with compound I-1, positive control DB1976, or vehicle (saline) for another 3 weeks, total time is 6 weeks after the first bleomycin treatment (FIG. 30. After the last day of treatment of both models, mice were fasted overnight and euthanized. Part of the skin was fixed with paraformaldehyde after fully flat on a foil, embedded with paraffin, and then sliced for H&E, Sirius red and Masson staining to check pathological features. The epidermal thickness of each sample was calculated quantitatively with image J. Another part of skin was collected and stored at −80° C. after liquid nitrogen quick-freezing, RNA isolation (Code.R6934, OMEGA, USA), first cDNA reverse (Code.AT341, TransGen, China), SYBR mix (Code.AQ601, TransGen, China) for Q-PCR (LightCycler® 96, Roche) to verify several fibrosis-related genes mRNA level, such as, Col1a1 and Col1a2.

[3] = tested on: bleomycin-induced pulmonary fibrosis; test: bleomycin-induced pulmonary fibrosis, preventive and therapeutic models; type: in vivo, mouse; details: preventive model, 5mpk i.p. for 4 weeks after single bleomycin injection
Method: Methods: To evaluate the preventive and therapeutic effects of compound I-1 on pulmonary fibrosis, bleomycin was used to establish two animal models of pulmonary fibrosis with different drug intervention (6-8 weeks, C57BL/6, male). Bleomycin (0.025U, Code.D11063, OKA, China) was injected by a single intratracheal application. Equal volumes of sterilized saline served as a control. (I) Preventive model of bleomycin-induced pulmonary fibrosis. Compounds compound I-1, positive control DB1976, or vehicle (saline) were treated (injected intraperitoneally, i.p.) immediately after single bleomycin injection for 4 weeks (FIG. 4a). (II) Therapeutic model of bleomycin-induced pulmonary fibrosis. Mice were pre-charged with bleomycin for 11 days to induced pulmonary fibrosis, then treated with compounds compound I-1, positive control DB1976, or vehicle (saline) for 17 days, total time is 4 weeks after bleomycin treatment (FIG. 4h). After the last day of treatment of both models, mice were fasted overnight and euthanized. A part of lung was fixed with paraformaldehyde, embedded with paraffin, and then sliced for H&E and Sirius red staining to check pathological features, and Ashcroft scores. Hubner, R. H. et al. Biotechniques 44, 507-511, 514-507, doi:10.2144/000112729 (2008). Another part of lung were collected and stored in −80° C. after liquid nitrogen quick-freezing, RNA isolation (Code.R6934, OMEGA, USA), first cDNA reverse (Code.AT341, TransGen, China), SYBR mix (Code.AQ601, TransGen, China) for Q-PCR (LightCycle96, Roche) to verify several fibrosis-related genes mRNA level, such as, Col1a1 and Col1a2.

NASH diet-induced NASH = NASH diet-induced NASH model; type: in vivo, mouse; details: 2.5mpk i.p. daily for 6 weeks
Excerpt: (§1) Methods: To evaluate the potential therapeutic effects of compound I-1 on liver disorders, including liver fat steatosis and accumulation, nonalcoholic fatty liver disease (NAFLD), nonalcoholic steatosis hepatitis (NASH), and liver fibrosis, three mice models (C57BL/6, male, 8 weeks old) were used. (I) NASH diet (Code.TD.160785, ENVIGO, USA)-induced NASH model: All mice were fed with NASH diet for 10 weeks. Mice were then randomly distributed into three groups, and each group was assigned to be injected daily with vehicle, compound I-1 (2.5mpk or 5mpk, i.p.), or DB1976 (2.5mpk, i.p, as a positive control) for another 6 weeks on continuous NASH diet. A group with normal regular diet was treated with vehicle as health control. (II) High-fat diet (HFD) combinate with CCl4 (lower dose)—induced NASH model. Mice were fed with normal regular diet or HFD (kcal fat 60%—D12492, research diets) for 10 weeks, then the HFD mice were divided into two groups randomly based on the rule of minimum weight differences. Each group was assigned to be injected with CCl4 (25% v/v in olive oil, 0.5 mL/kg body weight) or pure olive oil (i.p.) twice a week for 4 weeks. Compound 1-1 or vehicle (saline) were injected (i.p.) once daily for 4 weeks at the same time with CCl4 under continuous HFD. (III) CCl4 (higher dose)—induced liver fibrosis model. Liver fibrosis was induced by CCl4 injection (20% v/v in olive oil, 10 mL/kg body weight) twice a week for 6 weeks, compound I-1 or vehicle are also injected (i.p.) once daily for 6 weeks at the same time with CCl4 application. Ail the mice in the above-mentioned three models were observed daily. After the last day of treatment of all the models, mice were fasted overnight and euthanized. Serum was collected after centrifuging of the whole blood at 4 degrees, and blood biochemistry parameters were tested through automatic biochemical instrument (BS-240VET, Mindray). Part of liver tissues were fixed with paraformaldehyde, embedded with paraffin, and then sliced for H&E or Sirius red staining to check pathological features, and NAFLD scores. Kleiner, D. E. et al. Hepatology 41, 1313-1321, doi:10.1002/hep.20701 (2005). Part of liver tissues were used fresh, embedded in optimum cutting temperature compound, and sectioned. The sections were stained with 0.5% oil red 0 according to standard procedures after fixed in 4% paraformaldehyde in PBS. Another part of liver tissues were collected and stored in −80° C. after liquid nitrogen quick-freezing, RNA. isolation (Code.R6934, OMEGA., USA), first cDNA reverse (Code.AT341, TransGen, China), SYBR mix (Code.AQ601, TransGen, China) for Q-PCR (LightCycler®96, Roche) to verify genes mRNA level, such as, fibrosis-related genes, Col1a1 and Col1a2; inflammation-related genes, IL-6 and IL-1β.

[4] = tested on: HFD/CCL4-induced NASH and liver fibrosis; test: High-fat diet (HFD) combined with CCl4 (lower dose)-induced NASH model; type: in vivo, mouse
Excerpt: as §1

[5] = tested on: skin, liver and lung fibrosis; details: Wohlfahrt et al., Nature 2019; cited from earlier work
NASH = details: in vivo; Liu et al., J Hepatol 2020; cited from earlier work
PU.1 [6] = target: PU.1 (Homo sapiens, UniProt P17947); details: cited from earlier work
other ETS family numbers = details: cited from earlier work
[7] = tested on: T-ALL blast cells and TIM-3-high LICs; test: Pten-null T-ALL mouse model, compound I-1 and/or rapamycin treatment
Method: To generate a Pten-null T-ALL mouse model, Pten was 40% deleted in mouse fetal liver hematopoietic stem cells (HSCs), followed by PI3K-AKT pathway activation, hematopoietic disorder and T-ALL development. In the T-ALL crisis stage, T-ALL blasts and LICs would infiltrate mouse hematopoietic organs and non-hematopoietic organs.
After treatment, hematopoietic and non-hematopoietic organ morphology of the mice was analyzed using hematoxylin-eosin (H&E) staining.

[8] = preventive model, 5mpk i.p., 4 weeks

inhibition of TIM-3 expression (PU.1 [1]): no obvious inhibition
SMILES: N=C(N)c1ccc2nc(-c3ccc(NC(=O)[C@H]4CCCN4C(=O)[C@H]4CCCN4C(=O)c4ccc(-c5nc6ccc(C(=N)N)cc6[nH]5)cc4)cc3)[nH]c2c1 [Compound I-2, (R)-1-((4-(6-carbamimidoyl-1H-benzo[d]imidazol-2-yl)benzoyl)-D-prolyl)-N-(4-(6-carbamimidoyl-1H-benzo[d]imidazol-2-yl)phenyl)pyrrolidine-2-carboxamide]

inhibition of TIM-3 expression (PU.1 [1]): no obvious inhibition
SMILES: N=C(N)c1ccc2nc(-c3ccc(NC(=O)[C@@H]4CCCN4C(=O)[C@H]4CCCN4C(=O)c4ccc(-c5nc6ccc(C(=N)N)cc6[nH]5)cc4)cc3)[nH]c2c1 [Compound I-3, (S)-1-((4-(6-carbamimidoyl-1H-benzo[d]imidazol-2-yl)benzoyl)-D-prolyl)-N-(4-(6-carbamimidoyl-1H-benzo[d]imidazol-2-yl)phenyl)pyrrolidine-2-carboxamide]

SMILES: N=C(N)c1ccc2nc(-c3ccc(-c4nc5ccc(C(=N)N)cc5[nH]4)[se]3)[nH]c2c1 [DB1976, reference compound]
skin fibrosis progress ([2]; preventive model, 5mpk i.p. simultaneously with bleomycin for 4 weeks, vs bleomycin/vehicle): significantly prevented
collagen deposition [2, 8]: reducing
epidermal thickness [2, 8]: reducing
mRNA level of Col1a1 and Col1a2 ([2]; preventive model, 5mpk i.p., 4 weeks, skin): decreasing
bleomycin-induced skin fibrosis ([2]; therapeutic model, 3 weeks bleomycin then 3 weeks treatment, 5mpk): significantly alleviated and reversed
pulmonary fibrosis progress (staining, Ashcroft scores, collagen deposition, Col1a1, Col1a2 mRNA) [3]: significantly prevented
metabolic disturbance by NASH diet (body weight, liver fat, ALT, LDL-C, TC, IL-6, IL-1β, Col1a1, Col1a2) (NASH diet-induced NASH): potently alleviated
serum triglyceride (TG) and total-cholesterol (TC) ([4]; fasting serum, i.p. once daily for 4 weeks): reduced
body weight, gWAT and iWAT weight radio increased by HFD/CCL4 ([4]; i.p. once daily for 4 weeks with CCl4 under HFD): reversed
collagen deposition (sirius red staining) and liver mRNA level of Col1a1 and Col1a2 ([4]; mouse, in vivo): reduced
liver fibrosis induced by HFD/CCL4 application ([4]; mouse, in vivo): significantly alleviated
skin, liver and lung fibrosis [5]: alleviated
effects on NASH progress (liver steatosis, inflammation, fibrosis, glucose homeostasis) (NASH): beneficial effects
potency as PU.1 inhibitor (PU.1 [6]): limited potency
activity on other ETS family numbers (other ETS family numbers): inhibitory activity

SMILES: CO[C@H]1C[C@@H]2CC[C@@H](C)[C@@](O)(O2)C(=O)C(=O)N2CCCC[C@H]2C(=O)O[C@H]([C@H](C)C[C@@H]2CC[C@@H](O)[C@H](OC)C2)CC(=O)[C@H](C)/C=C(\C)[C@@H](O)[C@@H](OC)C(=O)[C@H](C)C[C@H](C)/C=C/C=C/C=C/1C [rapamycin, reference compound]
proportion of blasts in bone marrow ([7]; after two days' treatment at blast crisis stage, without treatment 96.4%): 13.2%
TIM-3 high LICs proportion ([7]; after two days' treatment, bone marrow, without treatment 33.5%): 22.2%
